From patent publication US12371428B2 (Exelixis, Inc., priority 2019, dated 2025)
Where a name gives a salt, the structure may show the parent alone.

Assays:
[1] = biological target: Met (phospho-Met, HGF-stimulated PC-3 prostate cancer cells) (Homo sapiens (Human), UniProt P08581); test: Met autophosphorylation ELISA in PC-3 cells (Example F); assay type: cell-based; settings: cellular activity; Met autophosphorylation ELISA in PC-3 cells; read-out: c-Met IC50
Outline: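 PC-3 cells, serum-starved 3 h, were treated with compounds (8-point dose curve, 0.3% DMSO final) for 1 h, then stimulated with 100 ng/mL recombinant human HGF for 10 min. Lysate phospho-Met (panTyr) was quantified by sandwich ELISA; IC50 from 4-parameter logistic fit.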

[2] = biological target: Mer (phospho-Mer, MERTK-transfected 293A cells) (Homo sapiens (Human), UniProt Q12866); test: Mer autophosphorylation ELISA in transient transfected 293A cells (Example H); assay type: cell-based; settings: cellular activity; Mer autophosphorylation ELISA in transient transfected 293A cells
Chain of Mer (phospho-Mer, MERTK-transfected 293A cells) (Q12866 21-999): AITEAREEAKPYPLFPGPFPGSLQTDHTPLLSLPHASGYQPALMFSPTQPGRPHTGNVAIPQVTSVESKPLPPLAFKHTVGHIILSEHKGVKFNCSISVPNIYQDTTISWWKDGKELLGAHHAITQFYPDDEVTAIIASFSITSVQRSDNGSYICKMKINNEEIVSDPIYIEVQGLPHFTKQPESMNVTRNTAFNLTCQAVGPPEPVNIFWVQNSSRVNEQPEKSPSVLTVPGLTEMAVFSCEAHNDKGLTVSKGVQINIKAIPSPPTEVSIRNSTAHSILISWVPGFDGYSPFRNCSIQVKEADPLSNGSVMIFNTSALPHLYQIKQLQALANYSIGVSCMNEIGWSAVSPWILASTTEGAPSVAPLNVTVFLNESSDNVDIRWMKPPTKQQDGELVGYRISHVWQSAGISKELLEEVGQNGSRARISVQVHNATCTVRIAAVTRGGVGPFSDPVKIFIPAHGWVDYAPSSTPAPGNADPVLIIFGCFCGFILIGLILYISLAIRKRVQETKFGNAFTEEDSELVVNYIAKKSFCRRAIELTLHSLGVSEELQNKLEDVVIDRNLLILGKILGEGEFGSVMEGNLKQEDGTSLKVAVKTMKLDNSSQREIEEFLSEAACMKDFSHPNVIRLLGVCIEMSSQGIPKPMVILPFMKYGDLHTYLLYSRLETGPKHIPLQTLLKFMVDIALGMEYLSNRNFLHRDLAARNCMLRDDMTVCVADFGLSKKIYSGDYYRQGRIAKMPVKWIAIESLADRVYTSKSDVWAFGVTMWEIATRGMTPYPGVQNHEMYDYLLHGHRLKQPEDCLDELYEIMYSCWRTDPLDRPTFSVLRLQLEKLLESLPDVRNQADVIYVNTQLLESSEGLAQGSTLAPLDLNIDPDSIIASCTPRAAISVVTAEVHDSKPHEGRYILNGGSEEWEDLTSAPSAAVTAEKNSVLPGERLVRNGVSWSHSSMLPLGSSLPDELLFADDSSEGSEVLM
Outline: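 IC50 from phospho-Mer ELISA of MERTK-transfected 293A cell lysates after 1 h treatment with serially diluted compound in serum-free medium.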

Chain of Met (phospho-Met, HGF-stimulated PC-3 prostate cancer cells) (P08581 25-1390): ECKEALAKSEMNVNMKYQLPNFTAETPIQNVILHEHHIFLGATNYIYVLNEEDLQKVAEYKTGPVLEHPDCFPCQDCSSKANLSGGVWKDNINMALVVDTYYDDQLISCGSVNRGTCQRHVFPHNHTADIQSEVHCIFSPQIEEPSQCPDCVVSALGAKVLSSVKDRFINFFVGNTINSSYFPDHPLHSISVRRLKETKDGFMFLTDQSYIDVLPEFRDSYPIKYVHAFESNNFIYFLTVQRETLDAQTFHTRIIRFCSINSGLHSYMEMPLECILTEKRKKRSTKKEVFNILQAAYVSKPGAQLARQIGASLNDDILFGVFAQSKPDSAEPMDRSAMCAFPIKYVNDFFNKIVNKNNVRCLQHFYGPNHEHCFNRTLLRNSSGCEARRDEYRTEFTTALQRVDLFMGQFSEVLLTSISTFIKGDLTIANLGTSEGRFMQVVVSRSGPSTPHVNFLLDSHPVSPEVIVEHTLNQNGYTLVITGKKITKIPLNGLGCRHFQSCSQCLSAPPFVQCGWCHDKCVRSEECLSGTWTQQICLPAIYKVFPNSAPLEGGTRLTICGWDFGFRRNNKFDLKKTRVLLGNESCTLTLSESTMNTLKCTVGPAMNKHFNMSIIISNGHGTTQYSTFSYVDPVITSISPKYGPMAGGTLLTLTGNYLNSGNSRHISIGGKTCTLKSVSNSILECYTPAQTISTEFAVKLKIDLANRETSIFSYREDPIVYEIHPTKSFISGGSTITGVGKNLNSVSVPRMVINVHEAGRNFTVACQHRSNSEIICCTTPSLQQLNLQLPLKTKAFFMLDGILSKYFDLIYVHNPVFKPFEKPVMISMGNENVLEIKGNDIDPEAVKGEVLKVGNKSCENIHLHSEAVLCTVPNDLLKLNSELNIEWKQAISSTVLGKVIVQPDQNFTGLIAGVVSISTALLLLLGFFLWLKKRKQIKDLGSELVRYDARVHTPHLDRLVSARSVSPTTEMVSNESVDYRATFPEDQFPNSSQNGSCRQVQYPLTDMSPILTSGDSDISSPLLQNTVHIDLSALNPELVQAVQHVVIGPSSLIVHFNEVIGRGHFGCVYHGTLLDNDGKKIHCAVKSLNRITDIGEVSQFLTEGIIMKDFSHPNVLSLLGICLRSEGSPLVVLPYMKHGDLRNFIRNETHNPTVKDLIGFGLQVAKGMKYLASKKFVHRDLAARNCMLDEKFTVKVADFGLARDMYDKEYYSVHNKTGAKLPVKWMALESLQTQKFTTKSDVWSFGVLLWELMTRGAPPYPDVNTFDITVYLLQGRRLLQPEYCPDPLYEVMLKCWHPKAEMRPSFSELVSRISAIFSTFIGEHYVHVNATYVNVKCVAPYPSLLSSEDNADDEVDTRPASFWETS

IC50 [1] [nM]	IC50 [2] [nM]	SMILES
< 100	< 100	CNc1nc2c(Oc3ccc(NC(=O)c4cn(C(C)C)c(C)c(-c5ccc(F)cc5)c4=O)cc3F)ccnc2cc1OC [Compound 582, N-[3-Fluoro-4-[[7-methoxy-6-(methylamino)-1,5-naphthyridin-4-yl]oxy]phenyl]-5-(4-fluorophenyl)-6-methyl-4-oxo-1-propan-2-ylpyridine-3-carboxamide]
< 100	100 to 300	COc1cc2nccc(Oc3ccc(NC(=O)c4cnc(C)c(-c5ccc(F)cc5)c4O)cc3F)c2nc1NS(C)(=O)=O [Compound 584, N-[3-Fluoro-4-[[6-(methanesulfonamido)-7-methoxy-1,5-naphthyridin-4-yl]oxy]phenyl]-5-(4-fluorophenyl)-4-hydroxy-6-methylpyridine-3-carboxamide]
100 to 300	< 100	COc1cnc2c(Oc3ccc(NC(=O)c4cn(C)c(C#N)c(-c5ccc(F)cc5)c4=O)cc3F)ccnc2c1 [Compound 586, 6-Cyano-N-[3-fluoro-4-[(7-methoxy-1,5-naphthyridin-4-yl)oxy]phenyl]-5-(4-fluorophenyl)-1-methyl-4-oxopyridine-3-carboxamide]
< 100	< 100	CCc1nc2c(Oc3ccc(NC(=O)c4cn(C(C)C)c(C)c(-c5ccc(F)cc5)c4=O)cc3F)ccnc2cc1OC [Compound 588, N-[4-[(6-Ethyl-7-methoxy-1,5-naphthyridin-4-yl)oxy]-3-fluorophenyl]-5-(4-fluorophenyl)-6-methyl-4-oxo-1-propan-2-ylpyridine-3-carboxamide]
< 100	< 100	Cc1cc(F)ccc1-c1c(C)ncc(C(=O)Nc2ccc(Oc3ccnc4cc(C(C)C)cnc34)c(F)c2)c1O [Compound 593, 5-(4-Fluoro-2-methylphenyl)-N-[3-fluoro-4-[(7-propan-2-yl-1,5-naphthyridin-4-yl)oxy]phenyl]-4-hydroxy-6-methylpyridine-3-carboxamide]
< 100	< 100	Cc1ncc(C(=O)Nc2ccc(Oc3ccnc4cc(C(C)C)cnc34)c(F)c2)c(O)c1-c1ccc(F)cc1 [Compound 596, 5-(4-Fluorophenyl)-N-[3-fluoro-4-[(7-propan-2-yl-1,5-naphthyridin-4-yl)oxy]phenyl]-4-hydroxy-6-methylpyridine-3-carboxamide]
< 100	< 100	Cc1ncc(C(=O)Nc2ccc(Oc3ccnc4cc(-c5cnn(C(F)F)c5)cnc34)c(F)c2)c(O)c1-c1ccc(F)cc1 [Compound 610, N-[4-[[7-[1-(Difluoromethyl)pyrazol-4-yl]-1,5-naphthyridin-4-yl]oxy]-3-fluorophenyl]-5-(4-fluorophenyl)-4-hydroxy-6-methylpyridine-3-carboxamide hydrochloride]
< 100	< 100	Cc1ncc(C(=O)Nc2ccc(Oc3ccnc4cc(-c5cnn(C(F)F)c5)cnc34)cc2)c(O)c1-c1ccc(F)cc1 [Compound 611, N-[4-[[7-[1-(Difluoromethyl)pyrazol-4-yl]-1,5-naphthyridin-4-yl]oxy]phenyl]-5-(4-fluorophenyl)-4-hydroxy-6-methylpyridine-3-carboxamide]
100 to 300	< 100	Cc1nc2c(Oc3ccc(NC(=O)c4cn(C(C)C)c(C)c(-c5ccc(F)cc5)c4=O)cc3)ccnc2cc1-c1cnn(C(F)F)c1 [Compound 612, N-[4-[[7-[1-(Difluoromethyl)pyrazol-4-yl]-6-methyl-1,5-naphthyridin-4-yl]oxy]phenyl]-5-(4-fluorophenyl)-6-methyl-4-oxo-1-propan-2-ylpyridine-3-carboxamide hydrochloride]
< 100	< 100	Cc1nc2c(Oc3ccc(NC(=O)c4cn(C(C)C)c(C)c(-c5ccc(F)cc5)c4=O)cc3)ccnc2cc1-c1cccnc1 [Compound 613, 5-(4-Fluorophenyl)-6-methyl-N-[4-[(6-methyl-7-pyridin-3-yl-1,5-naphthyridin-4-yl)oxy]phenyl]-4-oxo-1-propan-2-ylpyridine-3-carboxamide hydrochloride]
100 to 300	< 100	Cc1nc2c(Oc3ccc(NC(=O)c4cn(C(C)C)c(C)c(-c5ccc(F)cc5)c4=O)cc3F)ccnc2cc1-c1cnn(C(F)F)c1 [Compound 614, N-[4-[[7-[1-(Difluoromethyl)pyrazol-4-yl]-6-methyl-1,5-naphthyridin-4-yl]oxy]-3-fluorophenyl]-5-(4-fluorophenyl)-6-methyl-4-oxo-1-propan-2-ylpyridine-3-carboxamide hydrochloride]
< 100	< 100	Cc1nc2c(Oc3ccc(NC(=O)c4cnc(C)c(-c5ccc(F)cc5)c4O)cc3F)ccnc2cc1-c1cnn(C(F)F)c1 [Compound 615, N-[4-[[7-[1-(Difluoromethyl)pyrazol-4-yl]-6-methyl-1,5-naphthyridin-4-yl]oxy]-3-fluorophenyl]-5-(4-fluorophenyl)-4-hydroxy-6-methylpyridine-3-carboxamide hydrochloride]
< 100	< 100	Cc1nc2c(Oc3ccc(NC(=O)c4cnc(C)c(-c5ccc(F)cc5)c4O)cc3)ccnc2cc1-c1cnn(C(F)F)c1 [Compound 617, N-[4-[[7-[1-(Difluoromethyl)pyrazol-4-yl]-6-methyl-1,5-naphthyridin-4-yl]oxy]phenyl]-5-(4-fluorophenyl)-4-hydroxy-6-methylpyridine-3-carboxamide hydrochloride]
100 to 300	< 100	Cc1nc2c(Oc3ccc(NC(=O)c4cnc(C)c(-c5ccc(F)cc5)c4O)cc3F)ccnc2cc1-c1cccnc1 [Compound 618, N-[3-Fluoro-4-[(6-methyl-7-pyridin-3-yl-1,5-naphthyridin-4-yl)oxy]phenyl]-5-(4-fluorophenyl)-4-hydroxy-6-methylpyridine-3-carboxamide hydrochloride]

The next lines start with the compound.

SMILES	IC50 [1] [nM]	IC50 [2] [nM]
COc1cc2nccc(Oc3ccc(NC(=O)c4cn(C(C)C)c(C)c(-c5ccc(F)cc5)c4=O)cc3F)c2nc1O [Compound 580, N-[3-Fluoro-4-[(6-hydroxy-7-methoxy-1,5-naphthyridin-4-yl)oxy]phenyl]-5-(4-fluorophenyl)-6-methyl-4-oxo-1-propan-2-ylpyridine-3-carboxamide]	< 100	< 100
COc1cc2nccc(Oc3ccc(NC(=O)c4cn(C(C)C)c(C)c(-c5ccc(F)cc5)c4=O)cc3F)c2nc1NS(C)(=O)=O [Compound 581, N-[3-Fluoro-4-[[6-(methanesulfonamido)-7-methoxy-1,5-naphthyridin-4-yl]oxy]phenyl]-5-(4-fluorophenyl)-6-methyl-4-oxo-1-propan-2-ylpyridine-3-carboxamide]	100 to 300	< 100
CNc1c(-c2ccc(F)cc2)c(=O)c(C(=O)Nc2ccc(Oc3ccnc4cc(OC)cnc34)c(F)c2)cn1C [Compound 585, N-[3-Fluoro-4-[(7-methoxy-1,5-naphthyridin-4-yl)oxy]phenyl]-5-(4-fluorophenyl)-1-methyl-6-(methylamino)-4-oxopyridine-3-carboxamide]	< 100	< 100
COc1cnc2c(Oc3ccc(NC(=O)c4cn(C)c(OC)c(-c5ccc(F)cc5)c4=O)cc3F)ccnc2c1 [Compound 587, N-[3-Fluoro-4-[(7-methoxy-1,5-naphthyridin-4-yl)oxy]phenyl]-5-(4-fluorophenyl)-6-methoxy-1-methyl-4-oxopyridine-3-carboxamide]	< 100	< 100
CCc1nc2c(Oc3ccc(NC(=O)c4cnc(C)c(-c5ccc(F)cc5)c4O)cc3F)ccnc2cc1OC [Compound 589, N-[4-[(6-Ethyl-7-methoxy-1,5-naphthyridin-4-yl)oxy]-3-fluorophenyl]-5-(4-fluorophenyl)-4-hydroxy-6-methylpyridine-3-carboxamide]	< 100	< 100
Cc1ncc(C(=O)Nc2ccc(Oc3ccnc4cc(C(C)C)cnc34)cc2)c(O)c1-c1ccc(F)cc1 [Compound 594, 5-(4-Fluorophenyl)-4-hydroxy-6-methyl-N-[4-[(7-propan-2-yl-1,5-naphthyridin-4-yl)oxy]phenyl]pyridine-3-carboxamide]	< 100	< 100
Cc1nc(C)c(-c2ccc(F)cc2)c(O)c1C(=O)Nc1ccc(Oc2ccnc3cc(C(C)C)cnc23)c(F)c1 [Compound 595, 5-(4-Fluorophenyl)-N-[3-fluoro-4-[(7-propan-2-yl-1,5-naphthyridin-4-yl)oxy]phenyl]-4-hydroxy-2,6-dimethylpyridine-3-carboxamide]	< 100	< 100
Cc1nc(C)c(-c2ccc(F)cc2)c(O)c1C(=O)Nc1ccc(Oc2ccnc3cc(C(C)C)cnc23)cc1 [Compound 598, 5-(4-Fluorophenyl)-4-hydroxy-2,6-dimethyl-N-[4-[(7-propan-2-yl-1,5-naphthyridin-4-yl)oxy]phenyl]pyridine-3-carboxamide]	< 100	< 100
Cc1nc2c(Oc3ccc(NC(=O)c4cnc(C)c(-c5ccc(F)cc5)c4O)cc3)ccnc2cc1-c1cccnc1 [Compound 616, 5-(4-Fluorophenyl)-4-hydroxy-6-methyl-N-[4-[(6-methyl-7-pyridin-3-yl-1,5-naphthyridin-4-yl)oxy]phenyl]pyridine-3-carboxamide hydrochloride]	> 300	100 to 300
COc1cc2nccc(Oc3ccc(NC(=O)c4cn(CCO)c(C)c(-c5ccc(F)cc5)c4=O)cc3F)c2nc1OC [Compound 619, N-[4-[(6,7-Dimethoxy-1,5-naphthyridin-4-yl)oxy]-3-fluorophenyl]-5-(4-fluorophenyl)-1-(2-hydroxyethyl)-6-methyl-4-oxopyridine-3-carboxamide]	< 100	< 100
